Test results as given in patent US20100010082A1, “FORMULATIONS FOR TREATING EYE DISORDERS” (Aspreva International Ltd., priority 2008, published 2010).
Like-named read-outs stand apart in the source and are kept apart here. Marks after values point to notes of the source that are not given here.

Key:
[1] = system: Scopolamine Induced Dry Eye in C57BL/6 Mice; assay: Scopolamine induced dry eye model; format: in vivo, Mus musculus; conditions: by the end of the study (Day 13)
Method: This dry eye model was based on that described in De Paiva et al., 2006, Investigative Opthalmology & Visual Science 47(7):2847-2856, incorporated herein by reference. The study consisted of seven groups of 10 female C57BL/6 mice each. Starting on Day 0, mice of Groups 1-6 were treated four times-daily (QID) with topical bilateral ocular (OU) administration of control or test articles at intervals of at least two hours. […] Mice in Group 7 served as untreated controls. On Day 3, scopolamine patches were placed on the tails of the mice and replaced every other day (Q2D) thereafter. From Days 3-12, mice were maintained in an environment with high-volume air draft (see Environmental stress section, below). […]
For each day of administration, mice were briefly restrained. […] Following patch application, animals were monitored for any adverse reactions, including the condition of the tail and Vetwrap®. […]
Slit Lamp Corneal Examinations. Both eyes of each animal were evaluated via a slit lamp ophthalmic examination using topically-applied fluorescein. Fluorescein dye was used to examine the surface of the cornea and scored.
Pathology. […] A board-certified veterinary pathologist evaluated slides via light microscopy. […]
Eyes were serially sectioned and examined. The representative corneas were scored based upon a 0-4 scale, with 0 being normal, 1 being minimal, 2 being mild, 3 being moderate, and 4 being severe. […]

[2] = system: Con-A-induced dry eye in NZW rabbits; assay: Con A induced dry eye model, Tear Break-up Test (TBUT); format: in vivo, Oryctolagus cuniculus
[3] = system: Bovine Ocular Melanin Induced Uveitis in Lewis Rats
[4] = CellCept® label / Myfortic® label; cited from earlier work
[5] = Days 17/18, pooled average (+/−SEM) of both eyes
[6] = Days 19/20, pooled average (+/−SEM) of both eyes
[7] = Days 26/27, pooled average (+/−SEM) of both eyes
[8] = Days 28/29, pooled average (+/−SEM) of both eyes
[9] = Days −2/−1 (before immunization and dosing)

In the case of `C[C@@H]1C[C@H]2[C@@H]3CCC4=CC(=O)C=C[C@]4(C)[C@@]3(F)[C@@H](O)C[C@]2(C)[C@@]1(O)C(=O)CO` [dexamethasone], the “weight loss relative to other groups” value [1] is reported as “approx. 20%”, the “TBUT, post-hoc Tukey P vs. Vehicle” value ([2]; D6 (before Con A injection on Day 8)) is reported as under 0.01 and the “TBUT, post-hoc Tukey P vs. Vehicle” value ([2]; D9) is reported as under 0.05. For the same compound, the “TBUT, post-hoc Tukey P vs. Vehicle” value ([2]; D10) was under 0.01, the “TBUT, post-hoc Tukey P vs. Vehicle” value ([2]; D14) was under 0.001 and the “TBUT, post-hoc Tukey P vs. Vehicle” value ([2]; D15) was under 0.01. For the same compound, the “TBUT, post-hoc Tukey P vs. Vehicle” value ([2]; D16) was under 0.001, the “TBUT, post-hoc Tukey P vs. Vehicle” value ([2]; D17) was under 0.001 and the “Hyperemia Scores (pooled)” value ([3]; Days 14/15, pooled average (+/−SEM) of both eyes) was 2.0 ±. For the same compound, the “Hyperemia Scores (pooled)” value [3, 5] was 2.2 ±, the “Opacity Scores (pooled)” value [3, 5] was 1.1 ± and the “Hyperemia Scores (pooled)” value [3, 6] was 3.0 ± 0.0. For the same compound, the “Opacity Scores (pooled)” value [3, 6] was 2.0 ± 0.0, the “Hyperemia Scores (pooled)” value [3, 7] was 1.5 ± 0.5 and the “Opacity Scores (pooled)” value [3, 7] was 1.3 ± 0.5. For the same compound, the “Hyperemia Scores (pooled)” value [3, 8] was 0.0*, the “Opacity Scores (pooled)” value [3, 8] was 0.0* and the “Hyperemia Scores (pooled)” value [3, 9] was 0. The “Opacity Scores (pooled)” value [3, 9] was 0 and the “weight loss during study” value ([3]; rat, in vivo) was “significant drug-related weight loss”.

For `COc1c(C)c2c(c(O)c1C/C=C(\C)CCC(=O)[O-])C(=O)OC2.[Na+]` [NaMPA, sodium mycophenolic acid], the “solubility (in words)” value [4] is given as “highly soluble in aqueous solutions at physiological pH”.

In the case of `COc1c(C)c2c(c(O)c1C/C=C(\C)CCC(=O)OCCN1CCOCC1)C(=O)OC2` [MMF, mycophenolate mofetil], the “solubility (in words)” value [4] is listed as “only slightly soluble in water”.
